In PubChem BioAssay (NCI):
Values joined by “and” are separate entries in the source; they are usually repeats but may differ in a detail not shown here. Equal entries are not always repeated.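 Step 1: Grow cells in 96-well plates. Step 2: Expose to compound for 48 hours at 5 concentrations. Step 3: Interpolate endpoints linearly; if unreached, use highest concentration. The concentration for 50% growth inhibition is given as GI50. TGI denotes the concentration required for complete inhibition of growth.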

How the values were obtained:
Experiment in all cases: NCI anticancer screen, dose series, 48 h
SNB-19 CNS = system: SNB-19 CNS
MOLT-4 leukemia = system: MOLT-4 leukemia
ACHN renal = system: ACHN renal
A498 renal = system: A498 renal
OVCAR-3 ovarian = system: OVCAR-3 ovarian
HOP-62 NSCLC = system: HOP-62 NSCLC
BT-549 breast = system: BT-549 breast
SW-620 colon = system: SW-620 colon
RPMI-8226 leukemia = system: RPMI-8226 leukemia
OVCAR-4 ovarian = system: OVCAR-4 ovarian

SMILES	GI50 (SNB-19 CNS) [µM]	TGI (SNB-19 CNS) [µM]	GI50 (MOLT-4 leukemia) [µM]	TGI (MOLT-4 leukemia)	GI50 (ACHN renal) [µM]	TGI (ACHN renal) [µM]	GI50 (A498 renal) [µM]	TGI (A498 renal) [µM]	GI50 (OVCAR-3 ovarian) [µM]	TGI (OVCAR-3 ovarian) [µM]	GI50 (HOP-62 NSCLC) [µM]	TGI (HOP-62 NSCLC) [µM]	GI50 (BT-549 breast) [µM]	TGI (BT-549 breast) [µM]	GI50 (SW-620 colon) [µM]	TGI (SW-620 colon) [µM]	GI50 (RPMI-8226 leukemia) [µM]	TGI (RPMI-8226 leukemia) [µM]	TGI (OVCAR-4 ovarian) [µM]	GI50 (OVCAR-4 ovarian) [µM]
C=C(CN1CCc2[nH]c3ccc(F)cc3c2C1)c1ccc(C(=O)Nc2ccccc2N)cc1	3.73	21.7	1.92	6.56 µM	3.33	11.4	1.5	4.62	2.08	6.84	0.605	8.38	1.5	5.67	0.715	15.6	2.48	> 100		
S=C1SCN(Cc2ccccc2)CN1Cc1ccco1	35.5	> 100	5.91	76 µM	4.97	17.3	21.6	69.7	3.98	15	5.33	26.8	2.91	12.3	4.52	18.1				
O=C1C2C3C=CC(C2C(=O)N1CO)C1C2C(=O)N(CO)C(=O)C2C31 (stereo not given)		> 100		> 100 µM		> 66.6		> 100		> 100		> 100				> 66.7		46.5	> 64.7	
NNC(=O)C(=O)NN=C(C(Cl)(Cl)CO)C(Cl)(Cl)CO		> 100		50.7 µM		> 100		> 100		68		> 100				40.3		> 100	> 100	
CC(=O)Oc1c(C(=O)[O-])cc(C(C)C)cc1C(C)C.CC(=O)Oc1c(C(=O)[O-])cc(C(C)C)cc1C(C)C.CC(=O)Oc1c(C(=O)[O-])cc(C(C)C)cc1C(C)C.CC(=O)Oc1c(C(=O)[O-])cc(C(C)C)cc1C(C)C.[Cu+2].[Cu+2]	26.3	61.7	74.9	> 100 µM	75.2	> 100	16	32.8	27.3	65.9	25	54.4	16.7	38.5	42.1	> 100			97.1	42.9
COc1ccccc1CNCCN1C(=O)c2ccc3c4c(ccc(c24)C1=O)C(=O)N(CCNCc1ccccc1OC)C3=O			0.252	0.65 µM	0.39	1.24	1.49	2.92	0.207	0.676	0.221	0.603	0.502	1.64	0.235	0.591	0.287	0.955	0.261	0.132
O=NN(CCCl)C(=O)NC1CCC(CC(=O)O)CC1 (stereo not given)		> 100		> 100 µM and 63.2 µM		> 100		> 100		> 100		> 100				> 100		> 100	> 100	
COCCN(CCOC)c1nc(-c2ccccc2)nc2ccccc12	40.9	> 100	28.3	> 100 µM			30.1	89.7	31.3	> 100	22.4	64.3	22.5	47.7	33.9	> 100	7.03	36	> 100	44.8
